The term IC50 denotes the concentration that gives 50% inhibition. As usually defined, the half-life is the time needed for the level to fall by half in the phase considered. Low values mean rapid decline, high ones slow decline.

The record followed here is patent US12692259B2, “Morpholine-containing and piperazine-containing CXCR4 modulators and uses related thereto” (Emory University, priority 2021, dated 2026).

One data set deals with T1, CYP2D6 (Homo sapiens, UniProt P10635).
T1 construct: purchased Corning; host or cells: insect cells (microsomes)
The data set is described as follows: Fluorometric CYP450 inhibition assay, CYP2D6. Type of data set: in vitro ADME. Particulars: read-out: CYP450 IC50 (μM) 2D6. How it is done:
The CYP450 inhibition assays utilized microsomes from insect cells expressing human recombinant individual cDNA-expressed CYP isoforms 3A4 and 2D6, as well as the fluorogenic probe that produces fluorescent metabolite. Standard inhibitors were co-incubated with fluorogenic substrates and their inhibitory potential (IC50) was determined. Assay conditions in terms of CYP450 protein concentration and time of incubation were standardized, enzyme kinetics parameters of each fluorescent probe substrate were estimated and IC50 values of inhibitors were determined and validated on different days to check reproducibility.
A 100 mM sodium phosphate buffer was prepared and adjusted to pH 7.4. In a separate falcon tube, a 2× enzyme/substrate (E/S) solution was prepared in phosphate buffer. The final concentration of CYP2D6 (CORNING®) and 7-amido-4-methyl coumaric acid (AMMC) was 10 nM and 4 μM, and CYP3A4 (CORNING®) and 7-benzyloxy-4-(trifluoromethyl) coumarin (BFC) was 20 nM and 40 μM, respectively. In a separate falcon tube, a 2×NADPH regenerating system (NRS) was prepared in phosphate buffer.
Both enzymatic assays were conducted in a 96-well microtiter plate (Black, CORNING® COSTAR®) with a final volume of 100 μL. Preparation of the plate began with the addition of 74 μL of the E/S in the first well, and 50 μL to all subsequent wells (from 2-11). […] A 1:3 serial dilution of the test compound was conducted by removing 25 μL from the first well and diluting it with the second and so forth until the tenth row. Final concentrations yielded a range from 200 μM-0.01 μM. Well no. 11 contained no inhibitor, and well no. 12 contained no enzyme. Both were used as controls for background fluorescence. The plate was incubated for 30 min at 37° C. After incubation, the reaction was initiated by the addition of 50 μL of the 2×NRS to each well.
Immediately (within 1 min) the fluorescence was measured using a microplate reader (BIOTEK® Synergy Neo2). […] Data was exported and analyzed using Graph Pad Prism 7. […] The IC50 value was derived after the data was fitted on a 10-point curve using a four-parameter logistic regression model.

A short description of a further data set: in vitro. The note with it: mouse, pH 7.4; for Liver Microsomes % rem. @ 10 min. M: 3 µM; for half-life at 3 µM: microsomes. How it is done: Metabolic stability assay was performed at Emory University's Department of Chemistry or by Bristol Myers Squibb. The method used by Emory University's Department of Chemistry is described below.
Each method was developed in the presence of an internal standard (ISTD) d5-7-ethoxy coumarin. The column temperature was maintained at 40° C. for most of the samples otherwise noted. The detection was operated in the Agilent JetStream electrospray positive ionization using multiple reaction monitoring mode (MRM).
Other MS conditions were as follows: dwell time 100 ms; gas flow 10 L/min; nebulizer pressure 45 psi; delta EMV 200 V; fragmentor voltage and collision energy for individual compounds vary.
Test compounds were dissolved in 100% DMSO or 100% MeOH to make 10 mM stock solutions. Verapamil (Sigma Aldrich) aided as a positive control and was dissolved in 100% DMSO to make 10 mM stock solutions. The 10 mM stock solution of test and control compounds were further diluted in potassium phosphate buffer (100 mM, pH 7.4) to 500 μM to ensure the organic solvent content was <0.2%. Human liver microsomes (HLMs) were purchased from Xenotech at 20 mg/mL. NADPH (Sigma Aldrich) 10 mM stocks were prepared in deionized water.
The HLM assay was prepared in a 1.5 mL Eppendorf tube with a final volume of 1100 μL for duplicate runs. Each reaction contained phosphate buffer (928.4 μL), liver microsomes (55 μL), and test compound resulting in a final concentration of 3 μM (6.6 μL of 500 μM). The reaction was initiated with 110 μL of 10 mM NADPH. […] Before centrifugation each of the aliquoted tubes were vortexed to make sure compounds were in the solution. The aliquots were centrifuged at 12,000 g for 5 min and the supernatant removed and placed in an LC-MS vial. Each time point was assessed using LC-MS and the area, based on the extracted ion, was integrated with respect to the ISTD. […] A no-NADPH negative control with test or control compound was performed in a single run (150 μL) at the longest time point. Controls were processed and analyzed like the test compounds. Each time point was run in duplicates followed by in-between blank washes to avoid the carryover and to equilibrate the column.
The MLM assay was performed using the same procedures as those described above for the HLM assay.
(Liver microsomes are vesicles of endoplasmic reticulum, rich in cytochrome P450 enzymes.)

Another data set addresses CXCR4 (Homo sapiens, UniProt P61073). The data set is described as follows: Calcium flux assay (antagonist mode, SDF-1α challenge). Type of data set: cell-based. More on the design: Eurofins or Bristol Myers Squibb (contract assay). Particulars: read-out: CXCR4 Ca^+2 Flux IC50. How it is done:
Calcium flux assay was performed by Eurofins or Bristol Myers Squibb. The method used by Eurofins is described below.
Compound plate preparation: Vehicle controls and positive controls were prepared to ensure all assays were properly controlled. All wells were prepared using the Eurofins Discovery Services GPCRProfiler® Assay Buffer. The GPCRProfiler® Assay Buffer was a modified Hanks Balanced Salt Solution (HBSS) where HBSS was supplemented to contain 20 mM HEPES and 2.5 mM Probenecid at pH 7.4.
Agonist assay (first addition): Compound(s) supplied were plated in duplicate for each concentration assayed. During the agonist assay, the concentration(s) reflects accommodation for the dilution of compound during the antagonist assay. Please see below for further details. […] The reference agonist for each GPCR was included at Emax (the concentration where the reference agonist elicited a maximal response). The agonist assay was conducted on a FLIPR^TETRA instrument where the test compound(s), vehicle controls, and reference agonist were added to the assay plate after a fluorescence/luminescence baseline was established. The agonist assay was a total of 180 seconds and was used to assess each compound's ability to activate each GPCR assayed. Upon completion of the three minute agonist assay, the assay plate was incubated at 25° C. for a further two minutes. After the incubation period the antagonist assay was initiated.
The antagonist assay was conducted using the same assay plate that was used for the agonist assay. The antagonist assay was conducted on a FLIPR^TETRA instrument where vehicle controls and challenge concentration of reference agonist were added to appropriate wells. The antagonist assay was a total of 180 seconds and was used to assess each compound's ability to inhibit each GPCR assayed.
Data Processing—All plates were subjected to appropriate baseline corrections. Once baseline corrections were processed, maximum fluorescence/luminescence values were exported, and data manipulated to calculate percentage activation and percentage inhibition. […] Data manipulation calculation is as followed: ((Max RLU)−(Baseline Avg.))/((Positive Avg.)−(Baseline Avg.)).

Chain of CXCR4 (P61073 whole entry): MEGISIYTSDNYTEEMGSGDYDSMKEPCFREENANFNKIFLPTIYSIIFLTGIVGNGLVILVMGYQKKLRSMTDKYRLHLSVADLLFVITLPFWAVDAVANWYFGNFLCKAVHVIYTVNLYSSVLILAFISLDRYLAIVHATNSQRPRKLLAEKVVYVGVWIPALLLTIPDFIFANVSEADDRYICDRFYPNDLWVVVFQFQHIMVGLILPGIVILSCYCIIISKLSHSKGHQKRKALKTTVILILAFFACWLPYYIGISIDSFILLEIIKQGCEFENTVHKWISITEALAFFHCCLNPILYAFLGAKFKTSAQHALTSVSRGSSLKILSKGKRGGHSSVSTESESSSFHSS
T1 sequence (P10635 whole entry): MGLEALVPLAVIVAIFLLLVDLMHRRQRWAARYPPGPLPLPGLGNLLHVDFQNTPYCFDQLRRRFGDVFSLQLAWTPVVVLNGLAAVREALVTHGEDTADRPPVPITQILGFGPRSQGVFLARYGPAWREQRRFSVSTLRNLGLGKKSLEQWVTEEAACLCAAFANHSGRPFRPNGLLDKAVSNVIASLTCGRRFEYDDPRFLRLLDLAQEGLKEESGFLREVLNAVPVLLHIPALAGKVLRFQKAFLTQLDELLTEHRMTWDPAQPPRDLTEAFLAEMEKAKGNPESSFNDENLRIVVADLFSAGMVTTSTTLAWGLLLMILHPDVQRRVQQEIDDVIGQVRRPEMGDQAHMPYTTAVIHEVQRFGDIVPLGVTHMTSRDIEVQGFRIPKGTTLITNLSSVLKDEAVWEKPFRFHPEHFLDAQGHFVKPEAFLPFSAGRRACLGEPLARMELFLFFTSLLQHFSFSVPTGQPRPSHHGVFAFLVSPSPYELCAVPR

As for `CN(C[C@H]1Cc2c(cccc2N2CC3COC2C3)CN1)[C@H]1CCCc2cccnc21` (stereo in doubt) [EMU-324, (S)—N—(((R)-5-((1S,4R)-2-oxa-6-azabicyclo[2.2.1]heptan-6-yl)-1,2,3,4-tetrahydroisoquinolin-3-yl)methyl)-N-methyl-5,6,7,8-tetrahydroquinolin-8-amine], the IC50 was greater than 20 µM on CYP2D6 and 31 nM at CXCR4. The “Liver Microsomes % rem. @ 10 min. M” value in the data set “in vitro” is 36.9%.

In the case of `CN1CCN(c2cccc3c2C[C@@H](CN(C)[C@H]2CCCc4cccnc42)NC3)C(=O)C1` [EMU-251, 4-methyl-1-((S)-3-((methyl((S)-5,6,7,8-tetrahydroquinolin-8-yl)amino)methyl)-1,2,3,4-tetrahydroisoquinolin-5-yl)piperazin-2-one], the IC50 at CYP2D6 is greater than 50 µM; at CXCR4, 205 nM. In addition, in the data set “in vitro”, the half-life at 3 µM was 126 min.

For the compound `CN(C[C@H]1Cc2c(cccc2N2CCNC(=O)C2)CN1)[C@H]1CCCc2cccnc21` [EMU-254, 4-((R)-3-((methyl((S)-5,6,7,8-tetrahydroquinolin-8-yl)amino)methyl)-1,2,3,4-tetrahydroisoquinolin-5-yl)piperazin-2-one], the IC50 amounted to 8.1 µM on CYP2D6 and 52 nM at CXCR4. The half-life at 3 µM in the data set “in vitro” was determined as 35 min.

Turning to `CN1CCN(c2cccc3c2C[C@H](CN(C)[C@H]2CCCc4cccnc42)NC3)CC1=O` [EMU-255, 1-methyl-4-((R)-3-((methyl((S)-5,6,7,8-tetrahydroquinolin-8-yl)amino)methyl)-1,2,3,4-tetrahydroisoquinolin-5-yl)piperazin-2-one], the IC50 is 43.1 µM at CYP2D6 and 224 nM at CXCR4. The half-life at 3 µM in “in vitro” stood at 17 min.

On to `CCOC(=O)N1CCN(c2cccc3c2C[C@H](CN(C)[C@H]2CCCc4cccnc42)NC3)CC1` [EMU-261, ethyl 4-((R)-3-((methyl((S)-5,6,7,8-tetrahydroquinolin-8-yl)amino)methyl)-1,2,3,4-tetrahydroisoquinolin-5-yl)piperazine-1-carboxylate], for which the results for the IC50 on CYP2D6 and on CXCR4 were 4.47 µM and 990 nM, respectively. The compound also had a half-life at 3 µM in the data set “in vitro” of 7.4 min.

As for `CC(=O)N1CCN(c2cccc3c2C[C@H](CN(C)[C@H]2CCCc4cccnc42)NC3)CC1` [EMU-262, 1-(4-((R)-3-((methyl((S)-5,6,7,8-tetrahydroquinolin-8-yl)amino)methyl)-1,2,3,4-tetrahydroisoquinolin-5-yl)piperazin-1-yl)ethan-1-one], the IC50 on CYP2D6 is greater than 50 µM; on CXCR4, 56 nM. The half-life at 3 µM in “in vitro” is 5.5 min.

In the case of `CN(C[C@H]1Cc2c(cccc2N2CCN(S(C)(=O)=O)CC2)CN1)[C@H]1CCCc2cccnc21` [EMU-263, (S)—N-methyl-N—(((R)-5-(4-(methylsulfonyl)piperazin-1-yl)-1,2,3,4-tetrahydroisoquinolin-3-yl)methyl)-5,6,7,8-tetrahydroquinolin-8-amine], the IC50 at CYP2D6 came to 34.4 µM; at CXCR4, 312 nM. The half-life at 3 µM in the data set “in vitro” came to 3 min.

Turning to `CN1CCN(c2cccc3c2CC(CN(C)[C@H]2CCOc4cccnc42)NC3)CC1` (stereo partly drawn) [EMU-320, (4S)—N-methyl-N-((5-(4-methylpiperazin-1-yl)-1,2,3,4-tetrahydroisoquinolin-3-yl)methyl)-3,4-dihydro-2H-pyrano[3,2-b]pyridin-4-amine], the “Liver Microsomes % rem. @ 10 min. M” value in “in vitro” is listed as 91.6%. Moreover, the IC50 at CXCR4 turned out to be 13 nM.

With `CN(C[C@H]1Cc2c(cccc2N2CCN3CCOC[C@H]3C2)CN1)[C@H]1CCCc2cccnc21` [EMU-343, (S)—N—(((R)-5-((R)-hexahydropyrazino[2,1-c][1,4]oxazin-8(1H)-yl)-1,2,3,4-tetrahydroisoquinolin-3-yl)methyl)-N-methyl-5,6,7,8-tetrahydroquinolin-8-amine], the results for the IC50 on CYP2D6 and at CXCR4 were 4.1 µM and 4.4 nM, respectively. In “in vitro”, the “Liver Microsomes % rem. @ 10 min. M” value worked out at 33.8%.
